Tests used:
Format in all cases: in vivo
Spodoptera littoralis = Spodoptera littoralis (Egyptian cotton leaf worm) cotton leaf disc test; conditions: foliar, 72 h, read-out: control (at least one of mortality, anti-feedant effect, and growth inhibition)
In short: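 Cotton leaf discs on agar were sprayed with aqueous dilutions of 10′000 ppm DMSO stocks, dried and infested with five L1 larvae. Mortality, anti-feedant effect and growth inhibition were scored against untreated samples 3 days after infestation. Control = any of these higher than untreated.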

Plutella xylostella = Plutella xylostella (diamond back moth) artificial diet test; conditions: 120 h, read-out: effect in at least one of the two categories (mortality or growth inhibition)
In short: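 Artificial diet treated with aqueous compound solutions made from DMSO stocks, dried, then infested with L2 larvae (10 to 15 per well). Mortality and growth inhibition scored versus untreated controls 5 days after infestation. Application rate 200 ppm.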

Diabrotica Balteata = assay: Diabrotica balteata (corn root worm) maize sprout test; conditions: 96 h, read-out: effect in at least one of the two categories (mortality or growth inhibition)
In short: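 Maize sprouts on agar were sprayed with aqueous test solutions made from 10′000 ppm DMSO stocks, dried, then infested with 6 to 10 L2 larvae per well. Mortality and growth inhibition versus untreated samples were assessed 4 days after infestation; application rate 200 ppm.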

Thrips tabaci = Thrips tabaci (onion thrips) sunflower leaf disc test; conditions: foliar, 144 h
Procedure: Thrips tabaci (Onion Thrips):
Sunflower leaf discs were placed on agar in 24-well microtiter plates and sprayed with aqueous test solutions prepared from 10′000 ppm DMSO stock solutions. After drying the leaf discs were infested with a thrips population of mixed ages. The samples were assessed for mortality 6 days after infestation.

Tetranychus urticae = Tetranychus urticae (two-spotted spider mite) bean leaf disc test; conditions: foliar, 192 h
Procedure: Tetranychus urticae (Two-Spotted Spider Mite):
Bean leaf discs on agar in 24-well microtiter plates were sprayed with aqueous test solutions prepared from 10′000 ppm DMSO stock solutions. After drying the leaf discs were infested with a mite population of mixed ages. The samples were assessed for mortality on mixed population (mobile stages) 8 days after infestation.

Myzus persicae = Myzus persicae (green peach aphid) sunflower leaf disc test; conditions: foliar, 144 h
Procedure: Myzus persicae (Green Peach Aphid):
Sunflower leaf discs were placed on agar in a 24-well microtiter plate and sprayed with test solutions at an application rate of 200 ppm. After drying, the leaf discs were infested with an aphid population of mixed ages. After an incubation period of 6 days after treatment, samples were checked for mortality. The following compounds gave at least 80% mortality of Myzus persicae: […]

COC1=NO[C@@H](NC(=O)c2ccc(C3=NO[C@@](c4cc(Cl)c(Cl)c(Cl)c4)(C(F)(F)F)C3)cc2C)C1 (single isomer, unassigned) [Compound A149]
≥ 80%: percent control (mortality, anti-feedant effect or growth inhibition) at 200 ppm (Spodoptera littoralis) | percent effect (mortality or growth inhibition) at 200 ppm (Plutella xylostella) | percent effect (mortality or growth inhibition) at 200 ppm (Diabrotica Balteata) | mortality at 200 ppm (Thrips tabaci) | mortality at 200 ppm (Tetranychus urticae) | mortality at 200 ppm (Myzus persicae)

Cc1cc(C2=NO[C@@](c3cc(Cl)cc(Cl)c3)(C(F)(F)F)C2)ccc1C(=O)N[C@H]1CC(C(F)(F)F)=NO1 (single isomer, unassigned) [Compound A155]
≥ 80%: percent control (mortality, anti-feedant effect or growth inhibition) at 200 ppm (Spodoptera littoralis) | percent effect (mortality or growth inhibition) at 200 ppm (Plutella xylostella) | percent effect (mortality or growth inhibition) at 200 ppm (Diabrotica Balteata) | mortality at 200 ppm (Thrips tabaci) | mortality at 200 ppm (Tetranychus urticae) | mortality at 200 ppm (Myzus persicae)

CC1=NOC(NC(=O)c2ccc(C3=NO[C@@](c4cc(Cl)cc(C(F)(F)F)c4)(C(F)(F)F)C3)cc2C)C1 (stereo partly drawn) [Compound A028, 4-[(5S)-5-[3-chloro-5-(trifluoromethyl)phenyl]-5-(trifluoromethyl)-4H-isoxazol-3-yl]-2-methyl-N-(3-methyl-4,5-dihydroisoxazol-5-yl)benzamide]
≥ 80%: percent control (mortality, anti-feedant effect or growth inhibition) at 200 ppm (Spodoptera littoralis) | percent effect (mortality or growth inhibition) at 200 ppm (Plutella xylostella) | percent effect (mortality or growth inhibition) at 200 ppm (Diabrotica Balteata) | mortality at 200 ppm (Thrips tabaci) | mortality at 200 ppm (Tetranychus urticae) | mortality at 200 ppm (Myzus persicae)

COC1=NOC(NC(=O)c2ccc(C3=NO[C@@](c4cc(Cl)c(F)c(Cl)c4)(C(F)(F)F)C3)cc2C)C1 (stereo partly drawn) [Compound A030, 4-[(5S)-5-(3,5-dichloro-4-fluoro-phenyl)-5-(trifluoromethyl)-4H-isoxazol-3-yl]-N-(3-methoxy-4,5-dihydroisoxazol-5-yl)-2-methyl-benzamide]
≥ 80%: percent control (mortality, anti-feedant effect or growth inhibition) at 200 ppm (Spodoptera littoralis) | percent effect (mortality or growth inhibition) at 200 ppm (Plutella xylostella) | percent effect (mortality or growth inhibition) at 200 ppm (Diabrotica Balteata) | mortality at 200 ppm (Thrips tabaci) | mortality at 200 ppm (Tetranychus urticae) | mortality at 200 ppm (Myzus persicae)

Cc1cc(C2=NO[C@@](c3cc(Cl)c(F)c(Cl)c3)(C(F)(F)F)C2)ccc1C(=O)NC1CC(OCC2CC2)=NO1 (stereo partly drawn) [Compound A083]
≥ 80%: percent control (mortality, anti-feedant effect or growth inhibition) at 200 ppm (Spodoptera littoralis) | percent effect (mortality or growth inhibition) at 200 ppm (Plutella xylostella) | percent effect (mortality or growth inhibition) at 200 ppm (Diabrotica Balteata) | mortality at 200 ppm (Thrips tabaci) | mortality at 200 ppm (Tetranychus urticae) | mortality at 200 ppm (Myzus persicae)

CC1=NOC(N(C=O)C(=O)c2ccc(C3=NO[C@@](c4cc(Cl)c(Cl)c(Cl)c4)(C(F)(F)F)C3)cc2Cl)C1 (stereo partly drawn) [Compound A024, 2-chloro-N-formyl-N-(3-methyl-4,5-dihydroisoxazol-5-yl)-4-[(5S)-5-(3,4,5-trichlorophenyl)-5-(trifluoromethyl)-4H-isoxazol-3-yl]benzamide]
≥ 80%: percent control (mortality, anti-feedant effect or growth inhibition) at 200 ppm (Spodoptera littoralis) | percent effect (mortality or growth inhibition) at 200 ppm (Plutella xylostella) | percent effect (mortality or growth inhibition) at 200 ppm (Diabrotica Balteata) | mortality at 200 ppm (Thrips tabaci) | mortality at 200 ppm (Tetranychus urticae) | mortality at 200 ppm (Myzus persicae)

Cc1cc(C2=NO[C@@](c3cc(Cl)c(F)c(Cl)c3)(C(F)(F)F)C2)ccc1C(=O)NC1CC(OC(C)C)=NO1 (stereo partly drawn) [Compound A077]
≥ 80%: percent control (mortality, anti-feedant effect or growth inhibition) at 200 ppm (Spodoptera littoralis) | percent effect (mortality or growth inhibition) at 200 ppm (Plutella xylostella) | percent effect (mortality or growth inhibition) at 200 ppm (Diabrotica Balteata) | mortality at 200 ppm (Thrips tabaci) | mortality at 200 ppm (Tetranychus urticae) | mortality at 200 ppm (Myzus persicae)

Reference: patent US10499642B2, “Isoxazoline-substituted benzamides and analogues as insecticides” (SYNGENTA PARTICIPATIONS AG, priority 2015, dated 2019)
